Patent US6482609B1, “Isolated human EDG-4 receptor and polynucletide encoding said receptor” (priority 1997, dated 2002)

Tests used:
Assay type in all cases: cell-based
human EDG-3 [1] = target: T1, human EDG-3 (Homo sapiens, UniProt Q99500); experiment: SRE luciferase reporter in 293-EBNA cells, EDG-3; settings: EDG-3 clone pC3-E3HP2; 3 μM; 6 hours
T1 construct: expressed in transfected cells; host or cells: 293-EBNA
Protocol: NE-κB activates gene expression by binding to specific DNA sequences found in the promoters of genes regulated by this inflammation-related transcription factor. […] Transient Transfection Protocol for 293-EBNA (Assay 3): The protocol described in Example 11 for Assay 1 was followed except for the following changes: […] 3) 30 μl Lipofectamine Reagent (Lipofectamine Plus Kit) was diluted in 750 μl DMEM/F12. The diluted Lipofectamine was then combined with the DNA/Plus mixture and incubated at room temperature for 15 min. […] 2) Transfected cells were harvested by trypsinization and 50,000 cells per well were plated in 96-well Blackview plates coated with poly D-lysine (Becton Dickinson Labware, Cat. 40640). No cells were plated in the outside wells of the 96-well plate. […] The following treatments were used for all transfections: […] 2) The cells were treated for 6 hours. 3) Luciferase assay was performed.

human EDG-4 = human EDG-4 (Homo sapiens, UniProt O95136); experiment: NF-κB luciferase reporter in 293-EBNA cells, human EDG-4; settings: human EDG-4 (pC3-hedg4#36); 3 μM; 6 hours
Protocol: Transient Transfection Protocol for 293-EBNA (Assay 3): The protocol described in Example 11 for Assay 1 was followed except for the following changes: […] 3) 30 μl Lipofectamine Reagent (Lipofectamine Plus Kit) was diluted in 750 μl DMEM/F12. The diluted Lipofectamine was then combined with the DNA/Plus mixture and incubated at room temperature for 15 min. […] 2) Transfected cells were harvested by trypsinization and 50,000 cells per well were plated in 96-well Blackview plates coated with poly D-lysine (Becton Dickinson Labware, Cat. 40640). No cells were plated in the outside wells of the 96-well plate. […] 1) Media was removed and cells treated with compounds diluted in DMEM/F12 media. The following treatments were used for all transfections: […] 2) The cells were treated for 6 hours. 3) Luciferase assay was performed.

human EDG-3 [2] = experiment: NF-κB luciferase reporter in 293-EBNA cells, EDG-3; settings: for NF-κB response, original human EDG-3 clone: original human EDG-3 clone (pC3-hedg3)
Protocol: (§1) 2) 3 μg NFκB-tk-p4Luc reporter DNA and 3 μg pC3-hedg1, pC3-hedg3, pC3-redg4, pC3-hedg5 or pcDNA3 DNA was diluted in 240 μl OPTI-MEM (Gibco; Cat. 31985-062)
Transient Transfection Protocol for 293-EBNA (Assay 3):
The protocol described in Example 11 for Assay 1 was followed except for the following changes:
(§2) 2) SRE Cotransfection: 0.5 μg of 2XSREtk-p4Luc-zeo reporter DNA and 3.5 μg pcDNA3, EDG-1, EDG-3 (pC3-hE3HP2, different from the clone used in Assay 2 of Example 11) or the newly cloned human EDG-4 (pC3-hedg4#36); NF-κB Cotransfection: 2 μg 6XNFκBtk-p4Luc-zeo reporter DNA and 2.0 μg pcDNA3, EDG-1, EDG-3 (pC3-hE3HP2), or EDG-4 (pC3-hedg4#36). Expression plasmid and reporter plasmid DNA samples were combined and diluted in 750 μl of DMEM/F12 (serum free media) and 20 μl Plus Reagent (Lipofectamine Plus Kit, Life Technologies Cat. 10964-013), and incubated at room temperature for 15 min.
3) 30 μl Lipofectamine Reagent (Lipofectamine Plus Kit) was diluted in 750 μl DMEM/F12. The diluted Lipofectamine was then combined with the DNA/Plus mixture and incubated at room temperature for 15 min.
6) The transfection medium was replaced with serum-free DMEM/F12 for cells transfected with 2XSREtk-p4Luc-zeo reporter DNA and with DMEM/F12 plus 10% FBS for cells tansfected with 6XNFκBtk-p4Luc-zeo reporter DNA.
2) Transfected cells were harvested by trypsinization and 50,000 cells per well were plated in 96-well Blackview plates coated with poly D-lysine (Becton Dickinson Labware, Cat. 40640). No cells were plated in the outside wells of the 96-well plate.
1) Media for cells transfected with 6XNFκBtk-p4Luc-zeo reporter DNA was replaced with DMEM/F12 plus 0.5%FBS.
(§3) 1) Media was removed and cells treated with compounds diluted in DMEM/F12 media.
(§4) 2) The cells were treated for 6 hours.
3) Luciferase assay was performed.

rat edg4 = rat edg4 (Rattus norvegicus, UniProt P47752); experiment: NF-κB-tk-p4Luc luciferase reporter in 293-EBNA cells, rat EDG-4; design: expressed in transfected cells; host or cells: 293-EBNA
Protocol: 1) 150 mm plates of 293-EBNA obtained from Invitrogen (Cat. R620-07) with a confluency of ˜80% were used for transfection.
3) 96.8 μl Lipofectamine (Gibco; Cat. 18324-020) was diluted in 500 μl of OPTI-MEM.
6) 6 ml OPTI-MEM was added to each transfection tube and this was added to a plate of 293-EBNA cells. The plates were left for 4 hrs at 37° C. in a 5% CO2 incubator.
2) 0.02×10^6 cells were plated per well of a 96-well Blackview plate coated with polyD-lysine. No cells were plated in the outside wells of the 96well plate. Two 96-well plates were seeded for each transfection.
1) Cells were washed with PBS and 140 μl serum-free media (SFM) added to each well. Plates were incubated in 37° C. incubator for 6 hrs.
3) 50 μl 0.5M HEPES pH 7.8 buffer (1 mM MgCl2, 1 mM CaCl2) was added to all wells of 96-well plate. Black adhesive backing (Polyfitronics) was aligned to the bottom of the viewplate.
4) Luclite substrate was made up by adding 10 ml substrate diluent to 1 vial lyophilized substrate. Reconstituted substrate was kept under a dark container. 50 μl substrate was added to each well.
1) 0.01×10^6 cells were plated per well of a 96-well Blackview plate coated with polyD-lysine. No cells were plated in the outside wells of the 96-well plate.

[3] = tested on: 293-EBNA cells transfected with empty expression vector pcDNA3; experiment: NF-κB luciferase reporter in 293-EBNA cells, empty vector pcDNA3; settings: for NF-κB reporter response in control cells: pcDNA3-transfected 293-EBNA; for NF-κB reporter induction in control cells: pcDNA3, 3 μM, 6 hours, Assay #3
Protocol: Monolayer Transient Transfection Protocol for 293-EBNA
2) 6.6 μg NF-κB-tk-p4Luc reporter DNA and 6.6 μg of pC3-redg4 (expressing rat EDG-4), or pcDNA3 DNA was diluted in 500 μl OPTI-MEM (Gibco; Cat. 31985-062)
2) After 6 hrs, media was removed and cells treated with compounds diluted in 0.5% FBS media (140 μl added to each well).
3) Cells were treated for 24 hrs.
1) Luclite kit (Packard; Cat. 6016911) was used for luciferase assay. All reagents were brought to room temperature before use.
7) After incubation, plates were counted in a 12-detector Packard Top Count on a program without dark delay.
The above protocol for assay 1 was followed except for the following changes:
as §1, §2, §3, §4
293-EBNA cells were grown, lipofected in monolayer cultures, and pretreated as described above for Example 11, assay #1, except that NF-κB and AP-1 reporter-transfected cells were pretreated for 6 hr in medium containing 0.5% FBS, then treated overnight in the same medium with or without 10 μM LPA.

[4] = Assay #2, S1P, SPC 3 μM, 20% FBS

Sequence of rat edg4 (P47752 whole entry): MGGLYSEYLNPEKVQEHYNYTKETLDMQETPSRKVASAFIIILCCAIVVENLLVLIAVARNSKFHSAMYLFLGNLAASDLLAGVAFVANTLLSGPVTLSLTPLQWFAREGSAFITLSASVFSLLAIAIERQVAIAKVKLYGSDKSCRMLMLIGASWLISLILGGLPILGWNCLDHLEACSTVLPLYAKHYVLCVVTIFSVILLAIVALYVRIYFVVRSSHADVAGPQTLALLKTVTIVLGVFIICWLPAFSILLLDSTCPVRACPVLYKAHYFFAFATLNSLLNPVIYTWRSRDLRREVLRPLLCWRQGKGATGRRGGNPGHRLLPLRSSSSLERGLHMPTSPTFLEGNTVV
T1 sequence (Q99500 whole entry): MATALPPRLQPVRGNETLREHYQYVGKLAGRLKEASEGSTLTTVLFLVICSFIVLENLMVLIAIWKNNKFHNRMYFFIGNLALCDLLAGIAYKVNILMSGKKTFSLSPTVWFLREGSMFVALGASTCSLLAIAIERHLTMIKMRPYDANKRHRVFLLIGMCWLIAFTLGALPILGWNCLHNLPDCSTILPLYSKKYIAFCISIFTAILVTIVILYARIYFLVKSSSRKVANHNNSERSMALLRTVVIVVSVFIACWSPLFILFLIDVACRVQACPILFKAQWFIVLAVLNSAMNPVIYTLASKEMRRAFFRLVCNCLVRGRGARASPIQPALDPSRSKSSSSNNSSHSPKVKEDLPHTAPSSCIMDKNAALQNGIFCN

Structure (SMILES)	SRE response (human EDG-3 [1])	Induction of the NF-κB reporter gene (human EDG-4)	NF-κB response, original human EDG-3 clone (human EDG-3 [2])	Increase in luciferase activity (NF-κB reporter) (rat edg4; pC3-redg4, 1 μM, 24 hrs)	Increase in luciferase activity (NF-κB reporter) (rat edg4; pC3-redg4, 3 μM, Assay #2)	Increase in luciferase activity (NF-κB reporter) (rat edg4; pC3-redg4, 5 μM or 10 μM, 24 hrs)	NF-κB reporter response in control cells ([3]; Assay #1)	NF-κB reporter response in control cells [3, 4]	NF-κB reporter induction in control cells [3]	Induction of the NF-κB reporter gene compared to untreated controls (human EDG-3 [2]; EDG-3 clone pC3-E3HP2, 3 μM, 6 hours)	PTX sensitivity of NF-κB reporter response (rat edg4; pC3-redg4, Assay #1)	NF-κB reporter induction (qualitative) (rat edg4; pC3-redg4, Assay #1, 24 hrs)
CCCCCCCCCCCCC/C=C/[C@@H](O)[C@@H](N)COP(=O)(O)O [S1P, sphingosine-1-phosphate]	12 fold	4.5 fold	did not produce a NF-κB response	2 fold	3.5 fold	4-4.5 fold	No increase in luciferase activity	No response	No such induction			
CCCCCCCCCCCCC/C=C/[C@@H](O)[C@@H](N)COP(=O)([O-])OCC[N+](C)(C)C [SPC, sphingosylphosphorylcholine]	11 fold	9 fold	did not produce a NF-κB response		4 fold			No response	No such induction	about 8 fold	PTX-sensitive	induced the reporter gene in EDG-4 expressing cells
